# Test results from US8916571B2, “Methods of treating cancer using inhibitors of 5′-methylthioadenosine phosphorylase” (Albert Einstein College of Medicine of Yeshiva University, priority 2006, dated 2014).
# “Also recorded” adds a separate entry of the source.
# Experiments:
# [1] = system: FaDu cells; assay: Cell cycle and apoptosis analysis of FaDu cells (propidium staining, FACS); format: cell-based, human; conditions: for Apoptosis / G1 / G2 / S: 6 days
# Experimental: (§1) FaDu cells were maintained in MEM Eagle's media supplemented with 10% fetal bovine serum, 100 units/ml penicillin, 100 μg/mL streptomycin, 0.1 mM non essential amino acids and 1 mM sodium pyruvate. Cell survival was evaluated using the WST-1 assay (Kicska G A, long Li, Honig H, et al. Proc Natl Acad Sci USA 2001; 98:4593-98). Cells were seeded onto 96 well plates at a density of 10^4 cells per well, with either no additions, 1 μM compound (2), 20 μM MTA or 1 μM compound (2)+20 μM MTA, IC50 was determined following the manufacturer's protocol (Roche Applied Science, Ind.). Cells were grown and measured in triplicate or quadruplicate and the error bars show the mean±SD of the multiple samples.
# FaDu cells were subjected to six days in culture using the same conditions described as for Example 4, before staining with propidium […] and FACS cell sorting analysis.
# [2] = system: mouse lung cancer cells (3LL); assay: Mouse 3LL lung cancer cell culture study; format: cell-based
# Experimental: Growth of 3LL and RM1 cells was in Dulbecco's modified Eagle's medium containing serum and antibiotics with 5 mM sodium pyruvate and 0.25 mM non essential amino acid mixture (Gibco). Compound (1) was added as a sterile solution and MTA was absent or present at 20 μM.
# [3] = system: TRAMP (transgenic adenocarcinoma of mouse prostate) mice; assay: Treatment of TRAMP mice (tumour mass, metastasis, MRI, histology, polyamines); format: in vivo; conditions: for prostate cancer progression: alone or in combination with MTA; for tumour weight upon dissection: TRAMP mouse treated with 1 mM compound
# Experimental: MRI experiments were performed using a 9.4T 21 cm bore horizontal bore magnet (Magnex Scientific) Varian INOVA MRI system (Fremont, Calif.) equipped with a 28 mm inner diameter quadrature birdcage coil. Mice were anesthetized with isoflurane inhalation anesthesia (1-1.5% in 100% O2 administered via a nose cone) and positioned in the MRI coil. Body temperature was maintained (37-38° C.) using a homeothermic warming system. After acquiring scout images, multi-slice spin-echo imaging with an echo time of 18 ms and a repetition time of 400 ms ms was performed. A 40 mm field of view with a 256×256 matrix size was used. Nine to 15 slices along the transverse, sagittal, and coronal planes were acquired in each multi-slice experiment with a slice thickness of 1 mm and the gap between slices of 0.5 mm. MRI data were processed off-line with MATLAB-based MRI analysis software.
# (§2) Spent media and perchloric acid extracts of both PC3 cells and tissue samples were subjected to purification via cation exchange chromatography and dansyl-derivatized with minor changes. Disposable 10 ml BIO-RAD columns were centrifuged at 4,000 rpm for 3 minutes. Sodium carbonate used for derivatization was adjusted to pH 9.3 and the concentration of dansyl-chloride was adjusted to 100 mM. Dansyl-polyamines were quantitated by a Waters HPLC/Fluorescence system. A Phenomenex Luna 5μ C18 column was used with a mobile phase of 30% acetonitrile in a 50 mM ammonium acetate buffer at pH 6.8 (eluent A) and 100% acetonitrile (eluent B). Fluorescence detection was monitored by excitation at 338 nm and emission at 500 nm.
# Long-Term: Sterile solutions of 100 μM compound (2) (pH ˜6.4). Water bottles were autoclaved prior to filling with sterile inhibitor solutions. Water consumption was monitored every other day, with fresh inhibitor solution being administered to prevent bacterial growth. Mice were control-sacrificed and tissues (genitourinary system, liver, lungs) were collected for histology and polyamine analysis. Mass and dimensions of excised genitourinary system tumours were recorded. Sections of small intestine were also removed for toxicity analysis via H&E staining.
# [4] = system: FaDu xenografts; assay: FaDu xenograft study in NOD-SCID mice; format: in vivo, mouse
# Experimental: NOD-SCID mice (6-8 weeks old) were obtained from Jackson Laboratory (Bar Harbor, Me.). FaDu cells (10^6) were inoculated into the dorsum of the hind foot. After 5 days, mice were treated with 9 mg/kg or 21 mg/kg body weight of compound (2) in drinking water or by daily i.p. injections of 5 mg/kg body weight of compound (2). After inoculation mice were assigned to treatment or control groups (n=5). Tumor volume (V) was determined from: V=(4/3)*(22/7)*1/8*(length*width*height). Differences between treatment cohorts were determined using the Student's t test. Mice were weighed every 4-5 days, monitored for hair loss, loss of appetite, vomiting and diarrhea. Total and differential blood and bone marrow analyses were performed after treatment with compound (2).
# [5] = system: normal human fibroblast cells (GM02037); assay: Cytotoxicity on normal human fibroblast cells; format: cell-based; conditions: GM02037 cells treated with compound and MTA for 3 weeks
# Experimental: In order to determine whether the inhibition is selective for malignant cells, normal human fibroblast cells (GM02037) were also treated with compound (2) and MTA for 3 weeks. […] This selectivity is a further indication that the MTAP inhibitors described above are useful agents for the treatment of head and neck cancer.
# [6] = system: FaDu cells; assay: Time dependent proliferation (WST-1) and phase contrast microscopy of FaDu cells; format: cell-based, human
# Experimental: as §1
# FaDu cells were subjected to six days in culture using the same conditions described as for Example 4.
# [7] = system: SCC25 cells; assay: Time dependent proliferation of SCC25 cells (WST-1 assay); format: cell-based, human; conditions: 1 μM compound + 20 μM MTA
# Experimental: as §1, with “SCC25 cells were” for “FaDu cells were”, “long Li, Hong H, et” for “long Li, Honig H, et”, “1 μM MT-compound (2), 20” for “1 μM compound (2), 20”, “(2)+20 μM MTA. IC50 was” for “(2)+20 μM MTA, IC50 was”
# [8] = system: PC3 cells; assay: Clonogenic survival assay of PC3 cells; format: cell-based, human; conditions: combination treatment with MTA, approximately 2 weeks
# Experimental: • 1. 60% confluent plates of experimental cell line was taken and subjected to trypsinization • 2. Single cell suspension of the experimental cell line was made in the regular growth medium and number of cells per mililiter of suspension counted • 3. A fixed low number of cells were plated out in a volume of 3 ml of growth medium in each well of 6 well culture dishes and incubated overnight at 37° C. in a CO2 incubator • 4. Measured volumes of the inhibitor and substrate solutions in sterile deionised cell culture water was added to each well of the 6 well plates. Typically each concentration of inhibitor and/or substrate was added in triplicate wells to calculate error bars. […] At the end of the period of incubation growth medium was removed from each well, attached cells were washed once with PBS and fixed by addition of […] Formalin solution to each well and keeping at room temperature for ˜1 hour. • 7. […] Number of crystal violet stained colonies in each well containing more than 60 cells per colony was counted. • 10. Assuming each colony originated from a single surviving cell post-treatment and taking the number of colonies in the untreated control well as 1, the fraction of surviving cells in each well was calculated and plotted in a graph. […]
# [9] = system: Cal27 cells; assay: Cal27 cells grown 8 days with compound and MTA; format: cell-based; conditions: 1 μM compound + 20 μM MTA, G2/M arrest and apoptosis
# Experimental: FIGS. 25A and 25B show Cal27 cells grown for 8 days as control (untreated), in the presence of 20 μM MTA, 1 μM compound (2) alone or in combination (1 μM compound (2)+20 μM MTA).
# [10] = system: PC3 cells; assay: Quantitation of polyamines in PC3 cells and spent media (HPLC fluorescence); format: cell-based, human
# Experimental: PC3 cells were cultured and treated in triplicate as follows: untreated control, 20 μM substrate (MTA) alone, 1 μM compound (2) alone, or a combination of both substrate and inhibitor. Both cells and spent media were harvested at 1, 6, and 12 days for polyamine analysis by HPLC fluorescence.
# as §2
# [11] = system: PC3 cells; assay: Time dependent proliferation of PC3 cells (WST-1 assay); format: cell-based, human; conditions: 1 μM compound + 20 μM MTA
# Experimental: as §1, with “PC3” for “FaDu”, “Hong” for “Honig”, “MTA.” for “MTA,”
# [12] = system: liver polyamine levels; assay: Short-term treatment of mice, liver polyamine analysis; format: in vivo, mouse; conditions: short-term treatment (24, 48 hours, 7 days), 100 μM in drinking water
# Experimental: C56BI/6 mice were treated with 100 μM compound (2) via their drinking water and sacrificed at 24, 48 hours, and 7 days. Livers were immediately removed for polyamine analysis. TRAMP mice were treated approximately 6-8 months with 100 μM compound (2) via their drinking water and control sacrificed. Livers were removed for polyamine analysis.
# as §2
# Short-Term: Mice were treated with sterile solutions of 100 μM compound (2) (pH ˜6.4). Water bottles were autoclaved prior to filling with sterile inhibitor solutions. Mice were sacrificed at 1, 2, and 7 days, with three mice in each group, with the control group sacrificed after 7 days. […]
# [13] = TRAMP mice, 100 μM in drinking water, n=12, 29 ± 7 weeks treated
structure (smiles),measurement,setting,value
"CSC[C@H]1O[C@@H](n2cnc3c(N)ncnc32)[C@H](O)[C@@H]1O [MTA, methylthioadenosine]",Apoptosis,[1]; single agent,6.66%
same,G1,[1]; single agent,79.67%
same,G2,[1]; single agent,9.91%
same,S,[1]; single agent,10.42%
Nc1ncnc2c(CN3CC(O)[C@@H](CSCc4ccccc4)C3)c[nH]c12 (stereo partly drawn) [compound (1)],response of mouse lung cancer cells in culture,[2]; in the absence of MTA,not responding
same,response of mouse lung cancer cells in culture,[2]; in the presence of 20 μM MTA,responding
CSC[C@H]1CN(Cc2c[nH]c3c(N)ncnc23)C[C@@H]1O [compound (2)],Metastatic Cancer,[3]; [13],8%
same,Tumor Size,[3]; [13],1.7 ± 0.8 g
same,prostate cancer progression,[3]; TRAMP mice,inhibited
same,"toxicity: intestinal crypts (H&E), hair loss, GI problems","[3]; TRAMP mice, long-term treatment","No alterations, inflammations, or irregularities were observed"
same,tumour weight upon dissection,[3]; dissection at 34 weeks of age (Panel E),0.41 g
same,tumour weight upon dissection,[3]; dissection at 39 weeks of age (Panel F),0.64 g
same,TRAMP liver or GUS polyamine levels,"[3]; extended treatment, 100 μM in drinking water",no significant alterations
same,"size and incidence of preinvasive tumors, incidence of invasive cancer and metastasis","[3]; treated TRAMP mice, histology",decreased
same,regrowth of tumor after treatment removed,"[4]; 28 days after end of 28 day therapy, two highest doses",no regrowth of tumor
same,"animal weight, total and differential blood counts vs control","[4]; NOD-SCID mice, after 28 day treatment",No significant differences
same,growth of established FaDu xenografts,"[4]; NOD-SCID mice, oral or i.p., with or without MTA",significantly slower than in controls; also recorded: significantly delays the growth
same,cytotoxicity,[5],No cytotoxicity was observed
same,stopping cell cycling / apoptosis,[1]; in combination with MTA,effective for stopping cell cycling
same,cell proliferation,[6]; 1 μM compound + 20 μM MTA,reduces cell proliferation
same,cell growth (phase contrast photographs),"[6]; 5 days, inhibitor compound + MTA",effective in inhibiting cell growth
same,cell proliferation,[7],reduces cell proliferation
same,effect on PC3 cells in clonogenic assay,[8],cytostatic effect
same,number of viable Cal27 cells,[9],decreased
same,intracellular PUT levels,"[10]; 1 μM compound + 20 μM MTA, 1 day",3.03×10^−3±2.86×10^−2 pmoles PUT/mg protein
same,SPN levels in spent media,"[10]; compound + MTA, 1 day",slightly decreased
same,increase in intracellular PUT levels vs control,"[10]; compound + MTA, 1 day",6 fold
same,increase in intracellular SPD levels vs control,"[10]; compound + MTA, 1 day",~2.5 fold
same,increase in spent media PUT levels vs control,"[10]; compound + MTA, 1 day",2 fold
same,intracellular SPD levels,"[10]; compound + MTA, 1 day",7.19×10^−3±4.38×10^−2 pmoles SPD/mg protein
same,spent media PUT levels,"[10]; compound + MTA, 1 day",1.19×10^3±2.04×10^−1 pmoles PUT/mL spent media
same,PUT level vs control,"[10]; compound + MTA, 6 days",elevated
same,SPD level vs control,"[10]; compound + MTA, 6 days",elevated
same,decrease in cellular SPN levels vs control,"[10]; compound + MTA, 6 days",roughly 0.5 fold
same,levels of PUT in spent media,"[10]; compound + MTA, 6 days",2.41×10^−3±7.35×10^−1 pmoles PUT/mL spent media
same,levels of PUT in spent media relative to control,"[10]; compound + MTA, 6 days",almost double that of the control
same,cellular SPD levels,"[10]; compound + MTA, day 12",9.05×10^−3±1.09×10^−3 pmoles SPD/mg protein
same,intracellular PUT levels vs controls,"[10]; compound + MTA, day 12",significantly higher than controls
same,cell proliferation,[11],reduces cell proliferation
same,polyamine levels of mice livers,[12],not significantly altered
CSC[C@H]1N[C@@H](c2c[nH]c3c(N)ncnc23)C(O)C1O (stereo partly drawn) [compound (3)],prostate cancer progression,[3]; TRAMP mice,inhibits prostate cancer progression
same,Apoptosis,[1]; MTA+compound,29.41%
same,G1,[1]; MTA+compound,8.26%
same,G2,[1]; MTA+compound,60.49%
same,S,[1]; MTA+compound,31.25%
same,Apoptosis,[1]; single agent,7.89%
same,G1,[1]; single agent,72.06%
same,S,[1]; single agent,17.98%
